Test results published in US7935687B2, “Methods for treating spinal muscular atrophy using tetracycline compounds” (Paratek Pharmaceuticals, Inc., priority 2007, dated 2011).

Assays:
SMN2 mRNA = assay: In vitro cell-free splicing assay for inclusion of exon 7; format: biochemical; conditions: HeLa cell nuclear extract, 30° C., 3 hours
Experimental: The following example illustrates how tetracycline compound of the invention are active in an in vitro cell-free assay for the inclusion of exon 7 in […] mRNA. SMN1 and SMN2 pre-mRNA were prepared by in vitro transcription using T7 RNA polymerase of minigene templates that include exon 6, a truncated portion of intron 6, exon 7, intron 7 and a portion of exon 8 in the presence of ^32P-UTP. Labeled RNA was purified on a denaturing polyacrylamide gel followed by phenol extraction and ethanol precipitation of the RNA.
In vitro cell-free splicing of SMN1 and SMN2 transcripts was carried out in a 10 μl reaction volume at 30° C. for 3 hours. The reactions contained 10 fmol of labeled pre-mRNA, 30% (3 VI) HeLa cell nuclear extract (in 20 mM HEPES, pH 7.4, 20% (v/v) glycerol, 0.1M KC1, 0.2 mM EDTA), 1.3% (w/v) polyvinyl alcohol, 1.56 mM MgCl2, 32 mM HEPES, pH 7.4, 0.5 mM ATP, 20 mM creatine phosphate and either 2 μl of test compound (in 20 mM HEPES, pH 7.4, 0.1M KC1, 0.2 mM EDTA) or buffer alone. Following incubation, 200 μl of a solution containing 0.3M NaAc and 0.2% SDS was added to the reaction. Proteins were removed by extraction with an equal volume of phenol and RNA was precipitated with 2.5 volumes of ethanol. RNA was resuspended in formamide sample buffer and separated on a 9% urea-denaturing polyacrylamide gel. Quantitation of splicing was based on phosphorimage analysis (Fujix BAS2000 or Fujifilm FLA-5100). In this assay, percentage exon 7 inclusion averages 12% for the unmutated SMN1 mRNA and 4% for the SMN2 mRNA.
The in vitro activities for exon 7 splicing are expressed as the Emax (the maximum percentage exon 7 inclusion observed) and Cmax (the lowest compound concentration at which the maximum inclusion occurs in μM). For Emax, percentage inclusion values of less than 10% are indicated by “*”, values of 10-20% are indicated by “**”, and values greater than 20% are indicated by “***”. For Cmax data, concentrations of greater than 40 μM are indicated by “*”, concentrations between 40 and 10 μM are represented by “**” and concentrations of less than 10 μM are represented by “***”.

S. aureus (SA RN450) = assay: Antibacterial MIC, gram positive; format: cell-based; conditions: CLSI methodology, 35° C., 18-24 hours
E. coli (EC D1-209) = assay: Antibacterial MIC, gram negative; format: cell-based; conditions: CLSI methodology, 35° C., 18-24 hours

Row | MIC (S. aureus (SA RN450); Staphylococcus aureus) [µg/mL] | MIC (E. coli (EC D1-209); Escherichia coli) [µg/mL] | SMILES | Cmax (lowest compound concentration at which the maximum exon 7 inclusion occurs) (SMN2 mRNA) | Emax (maximum percentage exon 7 inclusion observed) (SMN2 mRNA) | MIC Gram Positive (SA RN450) (S. aureus (SA RN450)) | MIC Gram Negative (EC D1-209) (E. coli (EC D1-209))
1 | – | – | CN(C)C1C(O)=C(C(N)=O)C(=O)C2(O)C(O)=C3C(=O)c4c(O)ccc(-c5coc(CN6CCCCC6)c5)c4CC3CC12 (stereo not shown) [BF] | *** (concentrations of less than 10 μM) | ** (values of 10-20%) | *** (Good antibacterial activity (e.g., less than about 4 μg/mL)) | *** (Good antibacterial activity (e.g., less than about 4 μg/mL))
2 | – | – | CC(=O)NCCC(=O)c1ccc(O)c2c1CC1CC3C(N(C)C)C(O)=C(C(N)=O)C(=O)C3(O)C(O)=C1C2=O (stereo not shown) [CI] | * (concentrations of greater than 40 μM) | ** (values of 10-20%) | *** (Good antibacterial activity (e.g., less than about 4 μg/mL)) | * (weak antibacterial activity (greater than about 8 μg/mL))
3 | – | – | CN(C)CCCNC(=O)c1cccc(-c2ccc(O)c3c2CC2CC4C(N(C)C)C(O)=C(C(N)=O)C(=O)C4(O)C(O)=C2C3=O)c1 (stereo not shown) [P] | ** (concentrations between 40 and 10 μM) | ** (values of 10-20%) | ** (modest antibacterial activity (between about 4 and 8 μg/mL)) | * (weak antibacterial activity (greater than about 8 μg/mL))
4 | – | – | CN(C)C1C(O)=C(C(N)=O)C(=O)C2(O)C(O)=C3C(=O)c4c(O)ccc(-c5ccc(CN6CCOCC6)o5)c4CC3CC12 (stereo not shown) [AX] | *** (concentrations of less than 10 μM) | ** (values of 10-20%) | *** (Good antibacterial activity (e.g., less than about 4 μg/mL)) | ** (modest antibacterial activity (between about 4 and 8 μg/mL))
5 | – | – | CN(C)C1C(O)=C(C(N)=O)C(=O)C2(O)C(O)=C3C(=O)c4c(O)ccc(C(=O)CNc5cccnc5)c4CC3CC12 (stereo not shown) [CB] | ** (concentrations between 40 and 10 μM) | ** (values of 10-20%) | * (weak antibacterial activity (greater than about 8 μg/mL)) | * (weak antibacterial activity (greater than about 8 μg/mL))
6 | – | – | CN(C)CCCNC(=O)c1cccc(-c2ccc(O)c3c2CC2CC4C(N(C)C)C(O)=C(C(N)=O)C(=O)C4(O)C(O)=C2C3=O)c1 (stereo not shown) [J] | *** (concentrations of less than 10 μM) | ** (values of 10-20%) | *** (Good antibacterial activity (e.g., less than about 4 μg/mL)) | * (weak antibacterial activity (greater than about 8 μg/mL))
7 | < 4 | > 8 | CCOC(=O)CCNC(=O)c1cccc(-c2ccc(O)c3c2C[C@H]2C[C@H]4[C@H](N(C)C)C(O)=C(C(N)=O)C(=O)[C@@]4(O)C(O)=C2C3=O)c1 [Compound I, 3-[3-((6aS,10S,10aS,11aR)-8-Carbamoyl-10-dimethylamino-4,6,6a,9-tetrahydroxy-5,7-dioxo-5,6a,7,10,10a,11,11a,12-octahydro-naphthacen-1-yl)-benzoylamino]-propionic Acid Ethyl Ester] | * (concentrations of greater than 40 μM) | *** (values greater than 20%) | – | –
8 | – | – | CN1CCN(Cc2ccc(-c3ccc(O)c4c3CC3CC5C(N(C)C)C(O)=C(C(N)=O)C(=O)C5(O)C(O)=C3C4=O)o2)CC1 (stereo not shown) [AY] | *** (concentrations of less than 10 μM) | *** (values greater than 20%) | *** (Good antibacterial activity (e.g., less than about 4 μg/mL)) | * (weak antibacterial activity (greater than about 8 μg/mL))
9 | – | – | CN(C)C1C(O)=C(C(N)=O)C(=O)C2(O)C(O)=C3C(=O)c4c(O)ccc(-c5cccc(C(=O)NCCN)c5)c4CC3CC12 (stereo not shown) [N] | ** (concentrations between 40 and 10 μM) | ** (values of 10-20%) | *** (Good antibacterial activity (e.g., less than about 4 μg/mL)) | * (weak antibacterial activity (greater than about 8 μg/mL))
10 | – | – | CN(C)C1C(O)=C(C(N)=O)C(=O)C2(O)C(O)=C3C(=O)c4c(O)ccc(C(=O)Cc5cncn5C)c4CC3CC12 (stereo not shown) [CG] | * (concentrations of greater than 40 μM) | ** (values of 10-20%) | *** (Good antibacterial activity (e.g., less than about 4 μg/mL)) | * (weak antibacterial activity (greater than about 8 μg/mL))
